From PMC4467398, “Preclinical antitumor activity of ST7612AA1: a new oral thiol-based histone deacetylase (HDAC) inhibitor” (Oncotarget, 2014)
Where “and” joins values, the source holds several entries; their conditions need not be identical. Identical values can stand only once. Like-named read-outs stand apart in the source and are kept apart here.

Columns and labels:
[1] = PK sampling and analysis after a single oral dose of ST7612AA1 (plasma, LC-MS/MS); format: in vivo, CD1 mice; settings: ST7464AA1 in plasma, single oral dose of 120 mg/kg of ST7612AA1
Protocol: CD1 nude mice were used. Male mice were treated with a single dose of ST7612AA1 at 120 mg/10 mL/kg p.o., using 5% Solutol HS 15 in water for injection as vehicle. Blood samples were collected at 0.25, 0.5, 1, 2, 4 and 6 h post treatment from 5 animals per time point. Levels of ST7612AA1 and ST7464AA1 were determined in plasma by quantitative LC-MS/MS having a limit of quantification of 25 ng/mL. The PK parameters Cmax (maximum plasma concentration), Tmax (time of maximum plasma concentration), Clast (last quantifiable concentration), Tlast (time of last quantifiable plasma concentration), AUClast (area under the concentration vs time curve from 0 to Tlast), AUCINF (area under the concentration vs time curve from 0 to infinity), T1/2 (terminal half-life), CL/F (apparent systemic clearance) and Vz/F (apparent terminal volume of distribution) were derived from the analyte plasma concentration vs time data according to a model independent approach for sparse data sampling by using Phoenix WinNonlin® ver. 6.3 software (Pharsight, Cetara).

HDAC1 = test system: HDAC1; parameters: method as in PMID 25233084; settings: cited from earlier work
HDAC2 = test system: HDAC2; parameters: method as in PMID 25233084; settings: cited from earlier work
HDAC3 = test system: HDAC3; parameters: method as in PMID 25233084; settings: mean of IC50 on HDAC3 and 6; cited from earlier work
HDAC6 = test system: HDAC6; parameters: method as in PMID 25233084; settings: cited from earlier work
HDAC8 = test system: HDAC8; parameters: method as in PMID 25233084; settings: cited from earlier work
[2] = parameters: method as in PMID 25233084; settings: mean of IC50 on HDAC1, 10 and 11; cited from earlier work
HDAC11 = test system: HDAC11; parameters: method as in PMID 25233084; settings: mean of IC50 on HDAC1, 10 and 11; cited from earlier work
[3] = test system: acetylation of histone H4 in NCI-H460 NSCLC cells; test: Western blot with densitometry, histone H4 acetylation; format: cell-based, human; settings: 5 µM; NCI-H460; vehicle 0,0274
Protocol: (§1) For assessing the in vitro effect of ST7612AA1 on acetylation of α-tubulin and histones, NSCLC cells were treated with the test compound at various concentrations (dose-response curve). SAHA 5 μM was used as reference inhibitor. Protein extraction, separation and immunoblotting were performed as previously described. Immunoreactive bands were finally subjected to densitometry analysis by a phosphoimaging system (STORM, Molecular Dynamics), and then the IC50 values were calculated by the “ALLFIT” computer program. The antibodies used are listed in Supplementary Table 2.

[4] = test system: acetylation of alpha-tubulin in NCI-H460 NSCLC cells; test: Western blot with densitometry, tubulin acetylation; format: cell-based, human; settings: 5 µM; NCI-H460; vehicle 0,341
Protocol: as §1

[5] = male, CD1 nude, mouse, mean ± SEM

SMILES | Tlast [1] [h] | AUC(0-inf) ([1]; male, CD1 nude, mouse) [ng·h/mL] | CL/F ([1]; male, CD1 nude, mouse) [mL/min/kg] | Tmax ([1]; male, CD1 nude, mouse) [h] | half-life ([1]; male, CD1 nude, mouse) [h] | AUC(0-t) [1, 5] [ng·h/mL] | Cmax [1, 5] [ng/mL] | concentration at 6 h ([1]; male, CD1 nude, mouse, read-out: Clast) [ng/mL] | Vd/F ([1]; male, CD1 nude, mouse, read-out: Vz/F) [L/kg] | IC50 (HDAC1; HDAC1) [nM] | IC50 (HDAC1; mean of IC50 on HDAC1, 10 and 11) [nM] | IC50 (HDAC2) | IC50 (HDAC3) [nM] | IC50 (HDAC6; HDAC6) [nM] | IC50 (HDAC6; mean of IC50 on HDAC3 and 6) [nM] | IC50 (HDAC8) [nM] | IC50 [2] [nM] | IC50 (HDAC11) [nM] | Acetyl H4/H4 [3] | Acetyl tub./tubulin [4]
O=C1CC[C@H](C(=O)N[C@@H](CCCCCS)C(=O)Nc2ccccc2)N1 [ST7464AA1] | 6.0 | 5510 | 363 | 0.5 | 3.8 | 3750 ± 299 | 1580 ± 478 | 303 | 119 | 12.7 | 13 | 77.7 nM and 78 nM | 4 | 3.18 | 4 | 281 | 13 | 13 |  | 
O=C(CCCCCCC(=O)Nc1ccccc1)NO [SAHA, suberoylanilide hydroxamic acid, reference compound] |  |  |  |  |  |  |  |  |  |  |  |  |  |  |  |  |  |  | 0,1537 | 2,617
